The values that follow are results of earlier work, collected in patent US20170065526A1, “SOLID DOSAGE FORM OF RIVAROXABAN AND METHODS FOR MAKING THE SAME” (priority 2015, published 2017).

In general, solubility refers to the concentration that dissolves in the medium under given conditions.

≈ marks a conversion by molar mass, not a printed value.

For the data set the following is noted: relatively poor solubility, background statement.

As for `O=C(NC[C@H]1CN(c2ccc(N3CCOCC3=O)cc2)C(=O)O1)c1ccc(Cl)s1` [rivaroxaban, (S)-5-chloro-N-{[2-oxo-3-[4-(3-oxomorpholin-4-yl)phenyl]oxazolidin-5-yl]methyl}thiophene-2-carboxamide], the solubility is about 7 µg/mL (≈ 16.1 µM).
